Like-named read-outs stand apart in the source and are kept apart here.
What was measured:
[1] = test system: A549 cell non-small cell lung cancer cell line; experiment: growth inhibition of tumor cells in vitro, A549; format: cell-based, human
Excerpt: (§1) We tested compounds target a variety of tumor cell for the growth inhibition to show its antitumor activity by using the method of the field technicians known. Chooses the tumor cell lines include: A549 cell non-small cell lung cancer cell line (people), K562 cells (human chronic myeloid leukemia cells), NCI-H1975 cells (non-small cell lung adenocarcinoma cancer cell), MDA-MB-231 cells (human breast cancer cells) and HCT-116 cells (human colon cancer cells).

[2] = target: heat shock protein (HSP90); experiment: macromolecular interaction on chip, HSP90; format: binding; settings: compound fixed on the chip; HSP90 100 nM
Protocol: (§2) The experimental scheme: 1. Fixed the compounds on the chip:
(§3) Mobile phase were EGF (1 μM), FGF (1 μM), HSP90 (100 nM), FKBP12 (100 nM).
(§4) Detection whether small molecule compounds combined with the provided protein of heat shock protein (HSP90), epidermal growth factor (EGF) and fibroblast growth factor (FGF); and provide relevant data of combined dynamics.

[3] = test system: K562 cells (human chronic myeloid leukemia cells); experiment: growth inhibition of tumor cells in vitro, K562; format: cell-based
Excerpt: as §1

[4] = target: T1, epidermal growth factor (EGF) (Homo sapiens, UniProt P01133); experiment: macromolecular interaction on chip, EGF; format: binding; settings: for KD EGF: compound fixed on the chip, EGF 1 μM
T1 construct: epidermal growth factor (EGF)
Protocol: as §2, §3, §4

[5] = target: fibroblast growth factor (FGF); experiment: macromolecular interaction on chip, FGF; format: binding; settings: compound fixed on the chip; FGF 1 μM
Protocol: as §2, §3, §4

[6] = test system: NCI-H1975 cells (non-small cell lung adenocarcinoma cancer cell); experiment: growth inhibition of tumor cells in vitro, NCI-H1975; format: cell-based; settings: for IC50: Homo sapiens, NCI-H1975, read-out: IC50 NCI-H1975
Excerpt: as §1

[7] = test system: MDA-MB-231 cells (human breast cancer cells); experiment: growth inhibition of tumor cells in vitro, MDA-MB-231; format: cell-based; settings: for IC50: Homo sapiens, MDA-MB-231, read-out: IC50 MDA-MB-231
Excerpt: as §1

[8] = test system: HCT-116 cells (human colon cancer cells); experiment: cells; format: cell-based; settings: Homo sapiens, HCT-116, read-out: IC50 HCT-116
Excerpt: as §1

[9] = Homo sapiens, A549, A549 cell line, read-out: IC50 A549
[10] = K562 cell line, read-out: IC50 K562
[11] = Homo sapiens, A549, read-out: IC50 A549, A549 cell line

T1 sequence (P01133 971-1023 limits assumed, species assumed): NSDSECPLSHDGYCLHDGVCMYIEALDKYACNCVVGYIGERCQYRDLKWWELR

Row | SMILES | melting point [°C] | IC50 [1, 9] [nM] | KD HSP90 [2] | IC50 [3, 10] [nM] | KD EGF [4] | KD FGF [5] | also measured
1 | CC[C@@]1(O)C(=O)OCc2c1cc1n(c2=O)Cc2c-1nc1cc3c(cc1c2CCc1ccc(N2CCCCC2)cc1)OCO3 | > 250 | – | – | – | – | – | –
2 | CC[C@@]1(O)C(=O)OCc2c1cc1n(c2=O)Cc2c-1nc1cc3c(cc1c2CCc1cc(F)c(N2CCCC2)c(F)c1)OCO3 | > 250 | – | – | – | – | – | –
3 | CC[C@@]1(O)C(=O)OCc2c1cc1n(c2=O)Cc2c-1nc1cc3c(cc1c2/C=C/C=C/c1ccccc1)OCO3 [Compound 1, 20(S)-7-(styrene-butadiene-yl)-10,11-methylenedioxy-camptothecin] | 206 to 214 | 763 ± 5.05 | No combination | 1652 ± 10.6 | No combination | No combination | –
4 | CC[C@@]1(O)C(=O)OCc2c1cc1n(c2=O)Cc2c-1nc1cc3c(cc1c2/C=C/C=C/c1ccc(OC)cc1)OCO3 [Compound 2] | – | 1268 ± 4.65 | No combination | 2693 ± 9.63 | No combination | No combination | –
5 | CC[C@@]1(O)C(=O)OCc2c1cc1n(c2=O)Cc2c-1nc1cc3c(cc1c2/C=C/c1ccc(F)cc1)OCO3 [Compound 3, 20(S)-7-(4-fluorostyryl)-10,11-methylenedioxy-camptothecin] | > 250 | – | No combination | 66 ± 3.65 | can combine | No combination | Kd [4]: 5.3 nM
6 | CC[C@@]1(O)C(=O)OCc2c1cc1n(c2=O)Cc2c-1nc1cc3c(cc1c2/C=C/c1cccc(F)c1)OCO3 [Compound 4, 20(S)-7-(3-fluorostyryl)-10,11-methylenedioxy-camptothecin] | > 250 | – | No combination | – | No combination | No combination | –
7 | CC[C@@]1(O)C(=O)OCc2c1cc1n(c2=O)Cc2c-1nc1cc3c(cc1c2/C=C/c1ccccc1F)OCO3 [Compound 5, 20(S)-7-(2-fluorostyryl)-10,11-methylenedioxy-camptothecin] | > 250 | – | No combination | – | No combination | No combination | –
8 | CC[C@@]1(O)C(=O)OCc2c1cc1n(c2=O)Cc2c-1nc1cc3c(cc1c2/C=C/c1ccc(F)c(F)c1)OCO3 [Compound 6] | – | 530 ± 7.6 | No combination | 757 ± 8.62 | No combination | can combine | Kd [5]: 8.99 nM
9 | CC[C@@]1(O)C(=O)OCc2c1cc1n(c2=O)Cc2c-1nc1cc3c(cc1c2/C=C/c1cc(F)c(F)c(F)c1)OCO3 [Compound 7] | – | 1904 ± 8.64 | No combination | 1772 ± 9.68 | can combine | can combine | Kd [4]: 51.5 nM; Kd [5]: 53.6 nM
10 | CC[C@@]1(O)C(=O)OCc2c1cc1n(c2=O)Cc2c-1nc1cc3c(cc1c2CCc1ccc(N2CCOCC2)cc1)OCO3 [Compound 8, 20(S)-7-(4-(4-morpholino)phenethyl)-10,11-methylenedioxy-camptothecin] | – | – | No combination | – | No combination | No combination | –
11 | CC[C@@]1(O)C(=O)OCc2c1cc1n(c2=O)Cc2c-1nc1cc3c(cc1c2CCc1ccc(N2CCCC2)cc1)OCO3 [Compound 9, 20(S)-7-(4-(pyrrolidin-1-yl)phenethyl)-10,11-methylenedioxy-camptothecin] | 205 to 207 | 1522 ± 10.5 | No combination | 1366 ± 12.5 | No combination | No combination | –
12 | CC[C@@]1(O)C(=O)OCc2c1cc1n(c2=O)Cc2c-1nc1cc3c(cc1c2CCc1ccc(N2CCOCC2)c(F)c1)OCO3 [Compound 10, 20(S)-7-(3-fluoro-4-(4-morpholino)phenethyl)-10,11-methylenedioxy-camptothecin] | > 250 | 1223 ± 8.75 | No combination | 564 ± 9.85 | No combination | No combination | –
13 | CC[C@@]1(O)C(=O)OCc2c1cc1n(c2=O)Cc2c-1nc1cc3c(cc1c2CCc1cccc(N2CCOCC2)c1)OCO3 [Compound 14] | 163 to 165 | 10 to 50 | No combination | 1949 ± 15.7 | No combination | No combination | IC50 ([1]; A549 cell line, read-out: IC50 A549): 19 ± 3.47 nM
14 | CC[C@@]1(O)C(=O)OCc2c1cc1n(c2=O)Cc2c-1nc1cc3c(cc1c2CCc1ccccc1N1CCCC1)OCO3 [Compound 16, 20(S)-7-(2-(pyrrolidin-1-yl)phenethyl)-10,11-methylenedioxy-camptothecin] | 139 to 140 | – | – | 115 ± 7.6 | – | – | –
15 | CC[C@@]1(O)C(=O)OCc2c1cc1n(c2=O)Cc2c-1nc1cc3c(cc1c2CCc1cc(F)c(N2CCOCC2)c(F)c1)OCO3 [Compound 18, 20(S)-7-(3,5-difluoro-4-(4-morpholino)phenethyl)-10,11-methylenedioxy-camptothecin] | 246 to 247 | – | – | 489 ± 6.65 | – | – | –
16 | CC[C@@]1(O)C(=O)OCc2c1cc1n(c2=O)Cc2c-1nc1cc3c(cc1c2CCc1ccc(N2CCSCC2)cc1)OCO3 [Compound 20, 20(S)-7-(4-(4-thiomorpholino)phenethyl)-10,11-methylenedioxy-camptothecin] | 154 to 156 | – | – | 145 ± 4.35 | – | – | –
17 | CC[C@@]1(O)C(=O)OCc2c1cc1n(c2=O)Cc2c-1nc1cc3c(cc1c2-c1cccnc1)OCO3 [Compound 22, 20(S)-7-(pyridin-3-yl)-10,11-methylenedioxy-camptothecin] | – | – | – | – | – | – | IC50 [6]: 12.6 ± 2.43 nM; IC50 [7]: 4.09 ± 0.46 nM; IC50 [8]: 0.18 ± 0.03 nM
18 | CC[C@@]1(O)C(=O)OCc2c1cc1n(c2=O)Cc2c-1nc1cc3c(cc1c2-c1cccs1)OCO3 [Compound 26, 20(S)-7-(thiophene-2-yl)-10,11-methylenedioxy-camptothecin] | – | – | – | – | – | – | IC50 [6]: 0.36 ± 0.06 nM; ranking of activity in NCI-H1975 ([6]; among Table 2 compounds): best activities; IC50 [7]: 0.56 ± 0.03 nM; ranking of activity in MDA-MB-231 ([7]; among Table 2 compounds): best activities; IC50 [8]: 102 ± 6.18 nM
19 | CC[C@@]1(O)C(=O)OCc2c1cc1n(c2=O)Cc2c-1nc1cc3c(cc1c2-c1ccco1)OCO3 [Compound 27, 20(S)-7-(furan-2-yl)-10,11-methylenedioxy-camptothecin] | – | – | – | – | – | – | IC50 [6]: 4.53 ± 0.16 nM; IC50 [7]: 1.79 ± 0.14 nM; IC50 [8]: 0.25 ± 0.01 nM
20 | CC[C@@]1(O)C(=O)OCc2c1cc1n(c2=O)Cc2c-1nc1cc3c(cc1c2-c1cnn(C2CCCCO2)c1)OCO3 (some centres unmarked) [Compound 28] | – | – | – | – | – | – | IC50 [6]: 7.97 ± 0.52 nM; IC50 [7]: 1.56 ± 0.14 nM; IC50 [8]: 0.78 ± 0.06 nM
21 | CC[C@@]1(O)C(=O)OCc2c1cc1n(c2=O)Cc2c-1nc1cc3c(cc1c2-c1ccc(F)cc1)OCO3 [Compound 32] | – | – | No combination | 963 ± 7.61 | No combination | No combination | –
22 | CC[C@@]1(O)C(=O)OCc2c1cc1n(c2=O)Cc2c-1nc1cc3c(cc1c2-c1cc(C(F)(F)F)cc(C(F)(F)F)c1)OCO3 [Compound 33] | – | 174 ± 8.62 | – | 702 ± 8.87 | – | – | –
23 | CC[C@@]1(O)C(=O)OCc2c1cc1n(c2=O)Cc2c-1nc1cc3c(cc1c2-c1ccccc1)OCO3 [Compound 36] | – | 422 ± 10.3 | – | 1327 ± 8.96 | – | – | –
24 | CC[C@@]1(O)C(=O)OCc2c1cc1n(c2=O)Cc2c-1nc1cc3c(cc1c2-c1ccc(C(C)(C)C)cc1)OCO3 [Compound 37] | – | – | – | – | – | – | IC50 [1, 11]: 387 ± 3.75 nM; IC50 ([3]; K562, read-out: IC50 K562): 785 ± 9.23 nM
25 | CC[C@@]1(O)C(=O)OCc2c1cc1n(c2=O)Cc2c-1nc1cc3c(cc1c2-c1ccc2c(c1)OCO2)OCO3 [Compound 38] | – | – | – | – | – | – | IC50 [1, 11]: 282 ± 7.77 nM; IC50 ([3]; K562, read-out: IC50 K562): 202 ± 7.32 nM
26 | CC[C@@]1(O)C(=O)OCc2c1cc1n(c2=O)Cc2c-1nc1cc3c(cc1c2-c1ccc(F)cc1F)OCO3 [Compound 40] | – | – | – | – | – | – | IC50 [1, 11]: 836 ± 8.69 nM; IC50 ([3]; K562, read-out: IC50 K562): 1168 ± 9.69 nM
27 | CC[C@@]1(O)C(=O)OCc2c1cc1n(c2=O)Cc2c-1nc1cc3c(cc1c2-c1ccccc1F)OCO3 [Compound 41] | – | – | – | – | – | – | IC50 ([3]; K562, read-out: IC50 K562): 1037 ± 10.2 nM
28 | CC[C@@]1(O)C(=O)OCc2c1cc1n(c2=O)Cc2c-1nc1cc3c(cc1c2-c1ccc(F)c(F)c1)OCO3 [Compound 42] | – | – | – | 181 ± 8.55 | – | – | –
29 | CC[C@@]1(O)C(=O)OCc2c1cc1n(c2=O)Cc2c-1nc1cc3c(cc1c2N1CCOCC1)OCO3 [Compound 43, 20(S)-7-morpholino-10,11-methylenedioxy-camptothecin] | > 250 | – | – | – | – | – | IC50 ([3]; K562, read-out: IC50 K562): 837 ± 9.44 nM
30 | CC[C@@]1(O)C(=O)OCc2c1cc1n(c2=O)Cc2c-1nc1cc3c(cc1c2CCN1CCCCC1)OCO3 [Compound 52, 20(S)-7-(2-(piperidin-1-yl)ethyl)-10,11-methylenedioxy-camptothecin] | – | – | No combination | – | No combination | can combine | Kd [5]: 7.15 nM

From patent US20220177485A1, “CAMPTOTHECIN DERIVATIVE, PREPARATION METHOD THEREFOR AND APPLICATION THEREOF” (MARINE BIOMEDICAL RESEARCH INSTITUTE OF QINGDAO CO., LTD., priority 2018, published 2022)
